The record followed here is patent publication US5340929A, “Trisazo dye and dye composition containing the same” (Orient Chemical Industries, Ltd., priority 1992, dated 1994).

Like-named read-outs stand apart in the source and are kept apart here.

The subject of one series is strains TA98. The series is classed as cell-based. As to the method:
Further, the trisazo dye of the present invention is a nontoxic trisazo dye which gives negative results in a back mutation test using an organism, which is generally known as a test method for evaluating toxicity, i.e. AMES test (mutation test).
Evaluation method of Ames test
Regarding various specimen solutions respectively containing a trisazo dyes obtained in Examples 1 to 8 of the present invention and dyes of Comparative Examples 1 to 3, the number of mutant colonies was determined using strains TA98. 2. When the ratio is less than 2, it is "negative" and, when the ratio is more than 2, it is "positive", and the results are shown in Table. 1.

A short description of series [1]: Water resistance of writing (drawdown paper dipped in tap water, reflection density). The series is classed as physicochemical. Conditions: drawndown paper, 3% dye solution, air-dried one day. As to the method:
Light resistance: The resulting dye was dissolved in a 5% aqueous diethylene glycol solution to obtain a 3% dye solution. […] A degree of discoloration was compared with that before testing.
Water resistance: The drawndown paper was air-dried for one day and dipped in tap water.
A: Reflection density is more than 70% of that before testing.
B: Reflection density is 50 to 70% of that before testing.
C: Reflection density is less than 50% that before testing.

The next series is described as follows: Hue of dye / writing. The class given is physicochemical.

`Cc1ccc(N(c2ccc(N=Nc3ccc(O)cc3O)cc2)c2ccc(N=Nc3c(S(=O)(=O)O)cc4cc(S(=O)(=O)O)c(N=Nc5ccccc5)c(O)c4c3N)cc2)cc1` [Ex. 2]: the “Ames test: ratio of the number of colonies to control” value (shortened to “Ames test: ratio”) worked out at 1.17 in the series with strains TA98 (TA98, S-9 (+), 20 μg/plate); 1.09 in the series on strains TA98 (TA98, S-9 (+), 78 μg/plate); 1.02 in the series with strains TA98 (TA98, S-9 (+), 313 μg/plate); 0.83 with strains TA98 (TA98, S-9 (+), 1250 μg/plate); 0.87 with strains TA98 (TA98, S-9 (+), 5000 μg/plate); 1.19 with strains TA98 (TA98, S-9 (-), 20 μg/plate). For the same molecule, the “Ames test: ratio” value is 1.32 in the series with strains TA98 (TA98, S-9 (-), 78 μg/plate); 1.04 in the series with strains TA98 (TA98, S-9 (-), 313 μg/plate); 1.06 with strains TA98 (TA98, S-9 (-), 1250 μg/plate); 1.18 with strains TA98 (TA98, S-9 (-), 5000 μg/plate). The “Writing evaluation: Water resistance” value in series [1] is “B (Reflection density is 50 to 70% of that before testing.)”. For the same molecule, the Hue entry in “Hue of dye / writing” is given as “Reddish”.
`CCCCCCN(c1ccc(N=Nc2ccc(N)cc2O)cc1)c1ccc(N=Nc2c(S(=O)(=O)O)cc3cc(S(=O)(=O)O)c(N=Nc4ccccc4C)c(O)c3c2N)cc1` [Ex. 7]: the “Ames test: ratio” value in the series with strains TA98 (TA98, S-9 (+), 20 μg/plate) worked out at 1.20; in the series with strains TA98 (TA98, S-9 (+), 78 μg/plate), 1.15; in the series with strains TA98 (TA98, S-9 (+), 313 μg/plate), 0.82; with strains TA98 (TA98, S-9 (+), 1250 μg/plate), 0.44; in the series with strains TA98 (TA98, S-9 (+), 5000 μg/plate), 0.53; in the series with strains TA98 (TA98, S-9 (-), 20 μg/plate), 1.28. Further, the “Ames test: ratio” value is 1.50 with strains TA98 (TA98, S-9 (-), 78 μg/plate); 1.06 in the series with strains TA98 (TA98, S-9 (-), 313 μg/plate); 1.33 in the series with strains TA98 (TA98, S-9 (-), 1250 μg/plate); 0.94 in the series on strains TA98 (TA98, S-9 (-), 5000 μg/plate). Moreover, the “Writing evaluation: Water resistance” value in series [1] is recorded as “A (Reflection density is more than 70% of that before testing.)”. In the series “Hue of dye / writing”, the Hue result was “Reddish”.
For the molecule `CCC(C)c1ccc(N=Nc2c(S(=O)(=O)O)cc3cc(S(=O)(=O)O)c(N=Nc4ccc(N(c5ccccc5)c5ccc(N=Nc6ccc(O)cc6O)cc5)cc4)c(N)c3c2O)cc1` (stereo not drawn) [Ex. 3], the “Ames test: ratio” value in the series with strains TA98 (TA98, S-9 (+), 20 μg/plate) is given as 1.30; in the series on strains TA98 (TA98, S-9 (+), 78 μg/plate), 1.07; with strains TA98 (TA98, S-9 (+), 313 μg/plate), 1.17; in the series on strains TA98 (TA98, S-9 (+), 1250 μg/plate), 1.67; in the series with strains TA98 (TA98, S-9 (+), 5000 μg/plate), 0.77; in the series on strains TA98 (TA98, S-9 (-), 20 μg/plate) it was 0.87. The “Ames test: ratio” value in the series on strains TA98 (TA98, S-9 (-), 78 μg/plate) came out at 0.83; in the series on strains TA98 (TA98, S-9 (-), 313 μg/plate), 0.78; in the series on strains TA98 (TA98, S-9 (-), 1250 μg/plate) it was 0.87; in the series with strains TA98 (TA98, S-9 (-), 5000 μg/plate) it was 0.70. The “Writing evaluation: Water resistance” value in series [1] is “A (Reflection density is more than 70% of that before testing.)”. In addition, the Hue entry in “Hue of dye / writing” is “Reddish”.
As for `CCCCCCCCN(c1ccc(N=Nc2ccc(N)cc2O)cc1)c1ccc(N=Nc2c(S(=O)(=O)O)cc3cc(S(=O)(=O)O)c(N=Nc4ccc(S(=O)(=O)O)cc4)c(O)c3c2N)cc1` [Ex. 8], the “Ames test: ratio” value in the series on strains TA98 (TA98, S-9 (+), 20 μg/plate) is 1.25; in the series on strains TA98 (TA98, S-9 (+), 78 μg/plate), 1.22; in the series with strains TA98 (TA98, S-9 (+), 313 μg/plate), 1.16; in the series with strains TA98 (TA98, S-9 (+), 1250 μg/plate), 0.88; in the series on strains TA98 (TA98, S-9 (+), 5000 μg/plate), 0.91; with strains TA98 (TA98, S-9 (-), 20 μg/plate), 0.98. For the same molecule, the “Ames test: ratio” value in the series on strains TA98 (TA98, S-9 (-), 78 μg/plate) is 0.94; with strains TA98 (TA98, S-9 (-), 313 μg/plate) it was 0.91; with strains TA98 (TA98, S-9 (-), 1250 μg/plate) it was 0.93; with strains TA98 (TA98, S-9 (-), 5000 μg/plate), 1.02. Also, the “Writing evaluation: Water resistance” value in series [1] is given as “B (Reflection density is 50 to 70% of that before testing.)”. In addition, in the series “Hue of dye / writing”, the Hue entry is recorded as “Reddish”.
